According to article PMC9021288 (Nature Communications, 2022):
Values joined by “and” are separate entries in the source; they are usually repeats but may differ in a detail not shown here. Equal entries are not always repeated. “Also recorded” adds a separate entry of the source. Where two headings read alike, the source gives them in different places.

Key:
[1] = tested on: artemisinin-resistant P. falciparum Cambodian field isolates; experiment: Drug susceptibility of culture-adapted Cambodian isolates; assay type: cell-based, Plasmodium falciparum
Procedure: Endpoint readout to determine parasites density was performed with a High-Content Confocal Imaging microscope (Lionheart™ FX Automated Microscope, Biotek), IC50 values were obtained using ICestimator software (http://www.antimalarial-icestimator.net/runregression1.2.htm).

[2] = Blood to plasma ratio, rat
HepG2 cells = experiment: HepG2 viability (resazurin); settings: for HepG2 viability assay, normalised to controls / HepG2 viability assay, raw signal: replicate 1, replicate 2
Procedure: (§1) Safety studies were performed by commercial services using their standard protocols. […] Genotoxicity was investigated using the Ames test (Bacterial Reverse Mutation Assay) (Covance Laboratories Ltd, North Yorkshire, England). In vitro mammalian cell micronucleus screening assay was studied in human peripheral blood lymphocytes (BioReliance Corporation, Rockville, USA). Cardiotoxicity was determined against the hERG channel in an automated patch clamp assay using the Qpatch or against the hNaV 1.5, hKV 1.5 and hCaV 1.2 using a manual patch-clamp technique (Metrion Biosciences, Cambridge, UK). Cytotoxicity in human and rat primary hepatocytes was assessed using the CellTiter-Blue assay performed by commercial services (KaLy-Cell). The viability of HepG2 cells was monitored through the addition of 1 mM resazurin. Following 6 h incubation, the relative amount of reduced resazurin was detected in a fluorimeter and compared to the assay controls (vehicle: 0.1% DMSO and positive control: 10 µM puromycin).

[3] = tested on: human peripheral blood lymphocytes; experiment: In vitro micronucleus screening assay
Procedure: as §1

P. falciparum 3D7 = experiment: Parasite reduction rate (PRR) in vitro killing rate assay; assay type: cell-based, Plasmodium falciparum
Procedure: The antimalarial killing rate was determined by GlaxoSmithKline (GSK, Tres Cantos, Madrid, Spain) as described previously. […] The number of viable parasites was determined on day 21 and 28 by counting the wells with parasite growth.

[4] = tested on: human primary hepatocytes; experiment: Metabolite identification in human hepatocyte relay assay
Text: Briefly, cryopreserved human primary hepatocytes were thawed and cultured as described above.

[5] = 4-hour treatment + S9, 13.6 ug/ml
[6] = 4-hour treatment + S9, 19.4 ug/ml
[7] = 4-hour treatment + S9, 27.7 ug/ml
[8] = 4-hour treatment + S9, 39.5 ug/ml
[9] = 4-hour treatment + S9, 56.5 ug/ml
[10] = 4-hour treatment + S9, 80.7 ug/ml
[11] = 4-hour treatment + S9, 115 ug/ml
[12] = 4-hour treatment + S9, 165 ug/ml
[13] = 4-hour treatment + S9, 235 ug/ml
[14] = 4-hour treatment + S9, 336 ug/ml
[15] = 4-hour treatment + S9, 480 ug/ml
[16] = 4-hour treatment + S9, 686 ug/ml
[17] = 4-hour treatment + S9, 980 ug/ml
[18] = 4-hour treatment + S9, 1400 ug/ml
[19] = 4-hour treatment + S9, 2000 ug/ml
[20] = 4-hour treatment - S9, 13.6 ug/ml
[21] = 4-hour treatment - S9, 19.4 ug/ml
[22] = 4-hour treatment - S9, 27.7 ug/ml
[23] = 4-hour treatment - S9, 39.5 ug/ml
[24] = 4-hour treatment - S9, 56.5 ug/ml
[25] = 4-hour treatment - S9, 80.7 ug/ml
[26] = 4-hour treatment - S9, 115 ug/ml
[27] = 4-hour treatment - S9, 165 ug/ml
[28] = 4-hour treatment - S9, 235 ug/ml
[29] = 4-hour treatment - S9, 336 ug/ml
[30] = 4-hour treatment - S9, 480 ug/ml
[31] = 4-hour treatment - S9, 686 ug/ml
[32] = 4-hour treatment - S9, 980 ug/ml
[33] = 4-hour treatment - S9, 1400 ug/ml
[34] = 4-hour treatment - S9, 2000 ug/ml

Compound: C[C@@H](CNC(=O)[C@H](O)C(C)(C)CO)NC(=O)c1cc(F)c(F)cc1F [MMV693183]
- sensitivity of isolates [1]: sensitive to MMV693183
- IC50 ([1]; ART isolates, read-out: IC50s): 1.36 nM and 1.4 nM and 1.6 nM and 1.2 nM and 1.3 nM
- IC50 ([1]; ART-PPQ-AQ isolates, read-out: IC50s): 0.84 nM and 1.26 nM and 1.36 nM and 1.54 nM and 1.3 nM and 1.03 nM and 1.1 nM and 1.39 nM
- IC50 ([1]; Cambodian ACT-resistant isolates, read-out: IC50): 0.21 to 1.84 nM
- IC50 ([1]; MQ-ART isolates, read-out: IC50s): 1.48 nM
- IC50 ([1]; WT isolates, read-out: IC50s): 1.57 nM and 1.28 nM and 1.01 nM and 1.31 nM and 1.26 nM and 1.38 nM and 1.32 nM and 1.61 nM
- B:P [2]: 0.91
- HepG2 viability assay, normalised to controls (HepG2 cells; log concentration (M) -5): 96% and 104%
- HepG2 viability assay, raw signal (HepG2 cells; log concentration (M) -5): 10734 and 11536
- HepG2 viability assay, normalised to controls (HepG2 cells; log concentration (M) -5.5): 103% and 105%
- HepG2 viability assay, raw signal (HepG2 cells; log concentration (M) -5.5): 11483 and 11722
- HepG2 viability assay, normalised to controls (HepG2 cells; log concentration (M) -6): 105% and 100%
- HepG2 viability assay, raw signal (HepG2 cells; log concentration (M) -6): 11668 and 11173
- HepG2 viability assay, normalised to controls (HepG2 cells; log concentration (M) -6.5): 103% and 102%
- HepG2 viability assay, raw signal (HepG2 cells; log concentration (M) -6.5): 11442 and 11328
- HepG2 viability assay, normalised to controls (HepG2 cells; log concentration (M) -7): 100% and 101%
- HepG2 viability assay, raw signal (HepG2 cells; log concentration (M) -7): 11114 and 11207
- HepG2 viability assay, normalised to controls (HepG2 cells; log concentration (M) -7.5): 104% and 107%
- HepG2 viability assay, raw signal (HepG2 cells; log concentration (M) -7.5): 11575 and 11909
- HepG2 viability assay, normalised to controls (HepG2 cells; log concentration (M) -8): 105% and 102%
- HepG2 viability assay, raw signal (HepG2 cells; log concentration (M) -8): 11700 and 11315
- HepG2 viability assay, normalised to controls (HepG2 cells; log concentration (M) -8.5): 105% and 101%
- HepG2 viability assay, raw signal (HepG2 cells; log concentration (M) -8.5): 11684 and 11300
- HepG2 viability assay, normalised to controls (HepG2 cells; log concentration (M) -9): 109%
- HepG2 viability assay, raw signal (HepG2 cells; log concentration (M) -9): 12138 and 12106
- IC50 (HepG2 cells; read-out: IC50 viability, HepG2): > 10000 nM
- CBPI [3, 5]: 1.808
- Cytotoxicity (%) [3, 5]: 12%
- CBPI [3, 6]: 1.792
- Cytotoxicity (%) [3, 6]: 14%
- CBPI [3, 7]: 1.76
- Cytotoxicity (%) [3, 7]: 17%
- CBPI [3, 8]: 1.788
- Cytotoxicity (%) [3, 8]: 14%
- CBPI [3, 9]: 1.84
- Cytotoxicity (%) [3, 9]: 9%
- CBPI [3, 10]: 1.792
- Cytotoxicity (%) [3, 10]: 14%
- CBPI [3, 11]: 1.86
- Cytotoxicity (%) [3, 11]: 7%
- CBPI [3, 12]: 1.824
- Cytotoxicity (%) [3, 12]: 10%
- CBPI [3, 13]: 1.772
- Cytotoxicity (%) [3, 13]: 16%
- CBPI [3, 14]: 1.824
- Cytotoxicity (%) [3, 14]: 10%
- CBPI [3, 15]: 1.848
- Cytotoxicity (%) [3, 15]: 8%
- Percentage of MNBN Cells/Total BN Cells counted (%) [3, 15]: 0.4%
- CBPI [3, 16]: 1.824
- Cytotoxicity (%) [3, 16]: 10%
- CBPI [3, 17]: 1.84
- Cytotoxicity (%) [3, 17]: 9%
- CBPI [3, 18]: 1.836
- Cytotoxicity (%) [3, 18]: 9%
- Percentage of MNBN Cells/Total BN Cells counted (%) [3, 18]: 0.6%
- CBPI [3, 19]: 1.388
- Cytotoxicity (%) [3, 19]: 58%
- Percentage of MNBN Cells/Total BN Cells counted (%) [3, 19]: 0.4%
- CBPI [3, 20]: 1.916
- Cytotoxicity (%) [3, 20]: 0%
- CBPI [3, 21]: 1.86
- Cytotoxicity (%) [3, 21]: 6%
- CBPI [3, 22]: 1.912
- Cytotoxicity (%) [3, 22]: 0%
- CBPI [3, 23]: 1.832
- Cytotoxicity (%) [3, 23]: 9%
- CBPI [3, 24]: 1.864
- Cytotoxicity (%) [3, 24]: 6%
- CBPI [3, 25]: 1.876
- Cytotoxicity (%) [3, 25]: 4%
- CBPI [3, 26]: 1.88
- Cytotoxicity (%) [3, 26]: 4%
- CBPI [3, 27]: 1.804
- Cytotoxicity (%) [3, 27]: 12%
- CBPI [3, 28]: 1.84
- Cytotoxicity (%) [3, 28]: 8%
- CBPI [3, 29]: 1.792
- Cytotoxicity (%) [3, 29]: 14%
- CBPI [3, 30]: 1.8
- Cytotoxicity (%) [3, 30]: 13%
- Percentage of MNBN Cells/Total BN Cells counted (%) [3, 30]: 0.4%
- CBPI [3, 31]: 1.832
- Cytotoxicity (%) [3, 31]: 9%
- CBPI [3, 32]: 1.808
- Cytotoxicity (%) [3, 32]: 12%
- CBPI [3, 33]: 1.704
- Cytotoxicity (%) [3, 33]: 23%
- Percentage of MNBN Cells/Total BN Cells counted (%) [3, 33]: 0.4%
- CBPI [3, 34]: 1.496
- Cytotoxicity (%) [3, 34]: 46%
- Percentage of MNBN Cells/Total BN Cells counted (%) [3, 34]: 0.4%
- micronucleus test result ([3]; up to 2000 µg/ml, with or without S-9): No induction of micronuclei; also recorded: negative
- time to parasitemia below the detection limit (P. falciparum 3D7; 40 nM (10x IC50)): ≤ 48 h
- Average (log parasites +1) (P. falciparum 3D7; 24 h): 0.452
- Average (log parasites +1) (P. falciparum 3D7; 48 h): 0.0
- log (parasites +1) (P. falciparum 3D7; 48 h): 0.0
- parasites (P. falciparum 3D7; 48 h): 0
- Average (log parasites +1) (P. falciparum 3D7; 72h): 0.0
- log (parasites +1) (P. falciparum 3D7; 72h): 0.0
- parasites (P. falciparum 3D7; 72h): 0
- Average (log parasites +1) (P. falciparum 3D7; 96h): 0.0
- log (parasites +1) (P. falciparum 3D7; 96h): 0.0
- parasites (P. falciparum 3D7; 96h): 0
- Average (log parasites +1) (P. falciparum 3D7; 120h): 0.0
- log (parasites +1) (P. falciparum 3D7; 120h): 0.0
- parasites (P. falciparum 3D7; 120h): 0
- In vitro (MS response) [4]: 85%
